Assay results reported in patent publication US9138423B2, “Use of inhibitors of porphobilinogen deaminase in the treatment of congenital erythropoietic porphyria” (Asociación Centro de Investigación Cooperativa en …, priority 2010, dated 2015).

Experiments:
[1] = molecular target: porphobilinogen deaminase (PBGD) (Homo sapiens (Human), UniProt P08397); assay: Enzymatic assay of porphobilinogen deaminase catalytic activity (Lineweaver-Burk, inhibition constants); assay type: biochemical; settings: for Ki: global data fitting of all values in presence of inhibitor, 37° C., pH 8.0, read-out: Ki (inhibition constant of the catalytic activity of the PBGD)
Description: Obtaining and purifying the enzyme: The enzyme is obtained and purified by following the method published by Millet O et al. (2009) Biochemistry 48: 454-461.
Enzymatic assay: The assay is based on the method described by Jordan (Shoolingin-Jordan P M et al. (1997). Methods in enzymology 281: 327-336) with some modifications. 10 μL of porphobilinogen deaminase (PBGD) at a concentration of 150 μM in 48 μL of buffer (20 mM Tris-HCl pH 8.0, NaCl 150 mM) is preheated at 37° C. for two minutes. If the assay is performed in the presence of an inhibitor, the latter is added in dissolved form into the buffer. 25 μL of the porphobilinogen (PBG) substrate are then added, diluted to different concentrations (0.15, 0.3, 0.45, 0.6, 0.9, 1.2, 1.5, 1.8, 2.1, 2.4, 2.7, 3, 3.3, 3.9 mM) in the aforementioned buffer and are incubated at 37° C. for five minutes. A control assay containing a buffer without substrate (PBG) in the same proportions is performed at the same time. The enzymatic reaction is stopped by means of freezing the samples in liquid nitrogen. Then the mixture is incubated again with 6 μL of 25 mM uroporphyrinogen 3 synthase (U3S) at 37° C. for 30 minutes to transform the pre-uroporphyrinogen into uroporphyrinogen III. The reaction is again stopped by means of freezing in liquid nitrogen. Then the formed […] uroporphyrinogens are oxidized to uroporphyrins by means of adding 25 μL of I2/KI solution and incubation for 10 minutes in ice and darkness. The iodine excess is then bleached by adding 25 μL of saturated sodium metabisulfite solution. […] Finally, different dilutions of the supernatant in 0.1 M HCl are prepared to measure the change of absorbance at 405 nm with respect to the control sample.
Calculation of inhibition constants: Inhibition constants have been calculated from the global data fitting of all values in presence of inhibitor according to the methodologies disclosed in the prior art (Structure and mechanism in protein Science, Alan Fersht, 1999, Ed. Freeman and Co. (New York), Pag. 105-115).

[2] = molecular target: porphobilinogen deaminase of Arabidopsis thaliana (Arabidopsis thaliana (Mouse-ear cress), UniProt Q43316); settings: Arabidopsis thaliana enzyme; non-specific chemical modification; cited from earlier work
[3] = molecular target: Escherichia coli porphobilinogen deaminase (Escherichia coli (strain K12), UniProt P06983); settings: Escherichia coli enzyme; cited from earlier work
Escherichia coli porphobilinogen deaminase, sequence (P06983 whole entry): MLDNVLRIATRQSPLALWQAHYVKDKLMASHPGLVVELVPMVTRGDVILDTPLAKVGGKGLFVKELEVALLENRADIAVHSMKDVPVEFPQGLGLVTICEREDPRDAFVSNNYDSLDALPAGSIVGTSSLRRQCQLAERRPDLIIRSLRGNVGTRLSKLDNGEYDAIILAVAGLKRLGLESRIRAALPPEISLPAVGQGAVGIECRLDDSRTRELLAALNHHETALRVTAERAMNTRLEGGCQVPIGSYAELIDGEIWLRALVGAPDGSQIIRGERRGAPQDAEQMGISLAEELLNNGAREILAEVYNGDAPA

porphobilinogen deaminase (PBGD), sequence (P08397 whole entry): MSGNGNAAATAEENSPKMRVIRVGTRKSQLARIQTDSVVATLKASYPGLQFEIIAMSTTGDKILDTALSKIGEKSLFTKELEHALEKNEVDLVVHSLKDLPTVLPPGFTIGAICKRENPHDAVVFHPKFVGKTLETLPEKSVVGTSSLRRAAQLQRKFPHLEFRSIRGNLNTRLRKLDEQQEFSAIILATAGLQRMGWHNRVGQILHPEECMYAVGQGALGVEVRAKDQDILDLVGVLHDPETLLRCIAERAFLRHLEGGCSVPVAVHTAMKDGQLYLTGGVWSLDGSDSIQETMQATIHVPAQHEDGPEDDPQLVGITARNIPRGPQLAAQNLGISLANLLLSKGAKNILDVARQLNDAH
porphobilinogen deaminase of Arabidopsis thaliana, sequence (Q43316 63-382): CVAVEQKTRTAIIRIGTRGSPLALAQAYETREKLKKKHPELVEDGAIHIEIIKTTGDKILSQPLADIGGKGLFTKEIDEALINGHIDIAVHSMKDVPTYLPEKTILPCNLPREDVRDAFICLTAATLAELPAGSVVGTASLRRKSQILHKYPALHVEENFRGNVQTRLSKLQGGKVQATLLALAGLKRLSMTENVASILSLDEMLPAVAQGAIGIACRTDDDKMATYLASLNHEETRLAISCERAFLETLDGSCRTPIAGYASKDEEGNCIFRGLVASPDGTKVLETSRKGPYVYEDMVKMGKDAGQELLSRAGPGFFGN

With `Cc1c[nH]c(C)c1` [2,4-CH3-PYR, 2,4-dimethyl-1H-pyrrole] the Ki [1] was 6 µM.
`Cc1ccc(C)[nH]1` [2,5-CH3-PYR, 2,5-dimethyl-1H-pyrrole] gave a Ki [1] of 3 µM.
For `OCCS` [2-mercaptoethanol], the “effect on catalytic activity of porphobilinogen deaminase” value (shortened to “effect on catalytic activity”) [2] is given as “significantly alter the catalytic activity”.
In the case of `N[C@H](Cc1c[nH]c2ccccc12)C(=O)O` [DTRP, 2R-amino-3-(1H-indol-3-yl) propanoic acid], the “type of inhibition of the catalytic activity of PBGD (Lineweaver-Burk plot)” value ([1]; increasing amounts of inhibitor, change in slope with same intercept) is reported as “competitive inhibition”.
For `CCN1C(=O)C=CC1=O` [N-ethylmaleimide], the “effect on catalytic activity” value [3] is listed as “strongly deactivates” and the “effect on catalytic activity” value [2] is listed as “low inhibition”.
